# Source: EP0049968A1, “Pharmaceutical compositions” (priority 1980, dated 1982)
# Like-named read-outs stand apart in the source and are kept apart here.
# Tested on: highly resistant E.coli strains (producing a plasmid mediated β-lactamase)
# Assay: MIC of compound (i) alone and in combination with compound (iii), E. coli strains
# Type: cell-based
# Settings: for MIC: Escherichia coli, compound (i) alone
smiles,measurement,setting,value
CC1(C)S[C@@H]2[C@H](NC(=O)[C@H](NC(=O)Nc3cnc(Nc4ccc(S(N)(=O)=O)cc4)nc3O)c3ccc(O)cc3)C(=O)N2[C@H]1C(=O)O [compound (i)],MIC,"read-out: MIC µg/ml compound (i) alone, Geometric mean (± 95% confidence limits), geometric mean of 11 E. coli strains",> 160 µg/mL
same,MIC,"read-out: MIC µg/ml compound (i) alone, strain E96",> 160 µg/mL
same,MIC,"read-out: MIC µg/ml compound (i) alone, strain E110",> 160 µg/mL
same,MIC,"read-out: MIC µg/ml compound (i) alone, strain E121",> 161 µg/mL
same,MIC,"read-out: MIC µg/ml compound (i) alone, strain E124",> 160 µg/mL
same,MIC,"read-out: MIC µg/ml compound (i) alone, strain JT4",> 160 µg/mL
same,MIC,"read-out: MIC µg/ml compound (i) alone, strain JT9",> 160 µg/mL
same,MIC,"read-out: MIC µg/ml compound (i) alone, strain JT39",160 µg/mL
same,MIC,"read-out: MIC µg/ml compound (i) alone, strain JT68",> 160 µg/mL
same,MIC,"read-out: MIC µg/ml compound (i) alone, strain P9",> 160 µg/mL
same,MIC,"read-out: MIC µg/ml compound (i) alone, strain P19",> 160 µg/mL
same,MIC,"read-out: MIC µg/ml compound (i) alone, strain SA15",> 160 µg/mL
same,"MIC µg/ml compound (i) compound (iii) (µg/ml) 1, Geometric mean (± 95% confidence limits)","geometric mean of 11 E. coli strains, with compound (iii) 1 µg/ml",0.80 (0.16-4.1) µg/ml
same,"MIC µg/ml compound (i) compound (iii) (µg/ml) 2, Geometric mean (± 95% confidence limits)","geometric mean of 11 E. coli strains, with compound (iii) 2 µg/ml",0.59 (0.15-2.2) µg/ml
same,"MIC µg/ml compound (i) compound (iii) (µg/ml) 5, Geometric mean (± 95% confidence limits)","geometric mean of 11 E. coli strains, with compound (iii) 5 µg/ml",0.19 (0.07-0.53) µg/ml
same,"MIC µg/ml compound (i) compound (iii) (µg/ml) 10, Geometric mean (± 95% confidence limits)","geometric mean of 11 E. coli strains, with compound (iii) 10 µg/ml",0.08 (0.02-0.30) µg/ml
same,MIC µg/ml compound (i) compound (iii) (µg/ml) 1,"strain E96, with compound (iii) 1 µg/ml",0.62 µg/mL
same,MIC µg/ml compound (i) compound (iii) (µg/ml) 2,"strain E96, with compound (iii) 2 µg/ml",0.62 µg/mL
same,MIC µg/ml compound (i) compound (iii) (µg/ml) 5,"strain E96, with compound (iii) 5 µg/ml",0.31 µg/mL
same,MIC µg/ml compound (i) compound (iii) (µg/ml) 10,"strain E96, with compound (iii) 10 µg/ml",0.31 µg/mL
same,MIC µg/ml compound (i) compound (iii) (µg/ml) 1,"strain E110, with compound (iii) 1 µg/ml",0.16 µg/mL
same,MIC µg/ml compound (i) compound (iii) (µg/ml) 2,"strain E110, with compound (iii) 2 µg/ml",0.16 µg/mL
same,MIC µg/ml compound (i) compound (iii) (µg/ml) 5,"strain E110, with compound (iii) 5 µg/ml",0.08 µg/mL
same,MIC µg/ml compound (i) compound (iii) (µg/ml) 10,"strain E110, with compound (iii) 10 µg/ml",0.02 µg/mL
same,MIC µg/ml compound (i) compound (iii) (µg/ml) 1,"strain E121, with compound (iii) 1 µg/ml",0.62 µg/mL
same,MIC µg/ml compound (i) compound (iii) (µg/ml) 2,"strain E121, with compound (iii) 2 µg/ml",0.31 µg/mL
same,MIC µg/ml compound (i) compound (iii) (µg/ml) 5,"strain E121, with compound (iii) 5 µg/ml",0.16 µg/mL
same,MIC µg/ml compound (i) compound (iii) (µg/ml) 10,"strain E121, with compound (iii) 10 µg/ml",0.08 µg/mL
same,MIC µg/ml compound (i) compound (iii) (µg/ml) 1,"strain E124, with compound (iii) 1 µg/ml",1.25 µg/mL
same,MIC µg/ml compound (i) compound (iii) (µg/ml) 2,"strain E124, with compound (iii) 2 µg/ml",0.62 µg/mL
same,MIC µg/ml compound (i) compound (iii) (µg/ml) 5,"strain E124, with compound (iii) 5 µg/ml",0.31 µg/mL
same,MIC µg/ml compound (i) compound (iii) (µg/ml) 10,"strain E124, with compound (iii) 10 µg/ml",0.16 µg/mL
same,MIC µg/ml compound (i) compound (iii) (µg/ml) 1,"strain JT4, with compound (iii) 1 µg/ml",40 µg/mL
same,MIC µg/ml compound (i) compound (iii) (µg/ml) 2,"strain JT4, with compound (iii) 2 µg/ml",20 µg/mL
same,MIC µg/ml compound (i) compound (iii) (µg/ml) 5,"strain JT4, with compound (iii) 5 µg/ml",2.5 µg/mL
same,MIC µg/ml compound (i) compound (iii) (µg/ml) 10,"strain JT4, with compound (iii) 10 µg/ml",1.25 µg/mL
same,MIC µg/ml compound (i) compound (iii) (µg/ml) 1,"strain JT9, with compound (iii) 1 µg/ml",1.25 µg/mL
same,MIC µg/ml compound (i) compound (iii) (µg/ml) 2,"strain JT9, with compound (iii) 2 µg/ml",0.62 µg/mL
same,MIC µg/ml compound (i) compound (iii) (µg/ml) 5,"strain JT9, with compound (iii) 5 µg/ml",0.08 µg/mL
same,MIC µg/ml compound (i) compound (iii) (µg/ml) 10,"strain JT9, with compound (iii) 10 µg/ml",0.08 µg/mL
same,MIC µg/ml compound (i) compound (iii) (µg/ml) 1,"strain JT39, with compound (iii) 1 µg/ml",0.16 µg/mL
same,MIC µg/ml compound (i) compound (iii) (µg/ml) 2,"strain JT39, with compound (iii) 2 µg/ml",0.16 µg/mL
same,MIC µg/ml compound (i) compound (iii) (µg/ml) 5,"strain JT39, with compound (iii) 5 µg/ml",0.08 µg/mL
same,MIC µg/ml compound (i) compound (iii) (µg/ml) 10,"strain JT39, with compound (iii) 10 µg/ml",0.02 µg/mL
same,MIC µg/ml compound (i) compound (iii) (µg/ml) 1,"strain JT68, with compound (iii) 1 µg/ml",0.16 µg/mL
same,MIC µg/ml compound (i) compound (iii) (µg/ml) 2,"strain JT68, with compound (iii) 2 µg/ml",0.31 µg/mL
same,MIC µg/ml compound (i) compound (iii) (µg/ml) 5,"strain JT68, with compound (iii) 5 µg/ml",0.16 µg/mL
same,MIC µg/ml compound (i) compound (iii) (µg/ml) 10,"strain JT68, with compound (iii) 10 µg/ml",0.08 µg/mL
same,MIC µg/ml compound (i) compound (iii) (µg/ml) 1,"strain P9, with compound (iii) 1 µg/ml",1.25 µg/mL
same,MIC µg/ml compound (i) compound (iii) (µg/ml) 2,"strain P9, with compound (iii) 2 µg/ml",0.62 µg/mL
same,MIC µg/ml compound (i) compound (iii) (µg/ml) 5,"strain P9, with compound (iii) 5 µg/ml",0.16 µg/mL
same,MIC µg/ml compound (i) compound (iii) (µg/ml) 10,"strain P9, with compound (iii) 10 µg/ml",0.08 µg/mL
same,MIC µg/ml compound (i) compound (iii) (µg/ml) 1,"strain P19, with compound (iii) 1 µg/ml",0.31 µg/mL
same,MIC µg/ml compound (i) compound (iii) (µg/ml) 2,"strain P19, with compound (iii) 2 µg/ml",0.31 µg/mL
same,MIC µg/ml compound (i) compound (iii) (µg/ml) 5,"strain P19, with compound (iii) 5 µg/ml",0.08 µg/mL
same,MIC µg/ml compound (i) compound (iii) (µg/ml) 10,"strain P19, with compound (iii) 10 µg/ml",0.02 µg/mL
same,MIC µg/ml compound (i) compound (iii) (µg/ml) 1,"strain SA15, with compound (iii) 1 µg/ml",2.5 µg/mL
same,MIC µg/ml compound (i) compound (iii) (µg/ml) 2,"strain SA15, with compound (iii) 2 µg/ml",1.25 µg/mL
same,MIC µg/ml compound (i) compound (iii) (µg/ml) 5,"strain SA15, with compound (iii) 5 µg/ml",0.31 µg/mL
same,MIC µg/ml compound (i) compound (iii) (µg/ml) 10,"strain SA15, with compound (iii) 10 µg/ml",0.08 µg/mL
